Laboratory results reported in publication PMC4861708 (Frontiers in Cell and Developmental Biology, 2016).
In brackets after ≈: the same amount, converted by molar mass. Where a SMILES comes first, the peptide text is derived from it. [ ]: non-standard residue; d: D form. The star is where a group is joined. Orn(α-tetramethylguanidino) = CN(C)C(=N[C@@H](CCCN)C(=O)*)N(C)C; Orn = NCCC[C@H](N)C(=O)O

Tests used:
[1] = tested on: HEK293 cells; assay: in vitro; assay type: cell-based, human; conditions: 24 h
Description: (§1) Human embryonic kidney (HEK293) and HeLa cells were cultured in Dulbecco's modified Eagle's/Ham's F-12 medium [DMEM/F-12 (1:1)] supplemented with FBS (10% v/v), penicillin, and streptomycin (1000 units each). Primary rat cardiomyocytes (Innoprot, Elexalde Derio, Spain) were grown in medium supplemented with FBS (20% v/v), horse serum (5% v/v), L-glutamine (2 mmol/L), sodium pyruvate (2 mmol/L), MEM non-essential amino acids (Gibco, 0.1 mmol/L), penicillin, and streptomycin (1000 units each). Surfaces for cardiomyocyte growth were coated with attachment factor first. Cells (20,000/well) were seeded into a 96-well plate (PS, sterile, flat bottom), incubated for 24 h (37°C, 5% CO2), and washed twice with PBS (100 μl/well) prior to adding colorless medium (88 μL) and peptide solution (12 μL; 5, 2.5, 1.25, […], and 0.625 g/L in PBS). Positive controls were triton X-100 (1%, v/v) and melittin (60 mg/L) as lytic peptide, whereas PBS (12%, v/v) served as negative control. After an incubation period of 24 h, supernatant (25 μL) was mixed with lactate dehydrogenase (LDH) substrate (175 μL; 0.57 mmol/L sodium pyruvate, 0.24 mmol/L NADH disodium salt, 32 mmol/L potassium dihydrogen phosphate, 66 mmol/L dipotassium phosphate) in 96-well plates (PS, sterile, flat bottom). Absorbance was recorded at 340 nm every 3 min for 30 min on the Paradigm microplate reader. Due to the total release of LDH upon triton X-100 treatment, the control contained high LDH concentrations resulting in a fast substrate turnover that was only linear for the first 6 min.
(§2) The MTT cell viability assay relied on the same cell culture. Remaining medium was replaced by a mixture of fresh colorless medium (100 μL) and MTT (10 μL; 5 g/L in PBS) and incubated for 4 h (37°C, 5% CO2). A solution of sodium dodecyl sulfate (100 μL; 10%, w/v) dissolved in hydrochloric acid (10 mmol/L) was added, incubated (16 h), and the absorbance recorded at 590 nm relative to the reference at 650 nm (Paradigm microplate reader). The relative cell viability was calculated by [(ODPeptide − ODTriton)/(ODPBS − ODTriton)] × 100% and half-maximal inhibitory concentrations (IC50) with an Excel-template from cell biology protocols (www.sciencegateway.org/ protocols/cellbio/drug/hcic50.htm). For statistical analysis an unpaired t-test was applied using GraphPad Prism 5.0.

[2] = tested on: HeLa cells; assay: in vitro; assay type: cell-based; conditions: 24 h
Description: as §1, §2

[3] = tested on: E. coli DSM 1103; assay: Transmission electron microscopy, morphological changes; assay type: cell-based, Escherichia coli; conditions: 1 h
Description: Peptide-bacteria mixtures were fixed (2% glutaraldehyde, 5 mmol/L CaCl2, 10 mmol/L MgCl2 in 0.1 mol/L sodium cacodylate buffer, pH 7.4) overnight at 4°C. […] Samples were rinsed with distilled water (5 × 10 min), incubated with aqueous uranylacetate (0.5% w/v) for 1 h at 4°C, washed with distilled water (3 × 10 min), and embedded in Epon. The hardened blocks were sectioned (50 nm) on a UCT ultramicrotome (Leica, Vienna, Austria), stained with uranyl acetate and lead citrate on an AC20 system (Leica), and visualized at a Tecnai 12 electron microscope (FEI, Eindhoven, The Netherlands) at 80 kV. Morphological effects were quantified on average for 25 cells per condition.

[4] = tested on: HeLa cells; assay: Flow cytometry, endocytosis inhibition with dynasore; assay type: cell-based; conditions: dynasore 0.2 mmol/L 45 min, peptide 40 μmol/L 30 min
Description: Fresh colorless medium (150 μL) supplemented with either dynasore (0.2 mmol/L) dissolved in DMSO (final concentration of 0.2% v/v) or DMSO (0.2% v/v) as vehicle control was added. After 45 min (37°C) the supernatant was replaced by fresh medium supplemented with either dynasore or DMSO at the same concentrations (144 μL), Cf-labeled peptide added (6 μL, 1 mmol/L in water), and incubated (30 min, 37°C). Cells were fixed and stained with Hoechst 33342 as described above.
HeLa cells (50,000 for endocytosis inhibition and 70,000 for uptake kinetics) suspended in DMEM/F-12 medium (300 μL; see above) were seeded into 48-well plates (PS, sterile, flat bottom) and incubated (23 ± 1 h) using the conditions described above. Cells were washed twice with PBS (300 μL/well) and fresh medium was added (144 μL).
Cell cultures were prepared and incubated in the presence of dynasore, as described for microscopy. Cells were washed, treated with trypsin, and fixed as described above, dissolved in FACS buffer, and analyzed the same day.

[5] = in vitro; assay type: cell-based, human; conditions: human
Description: as §1, §2

CC(C)C[C@H](NC(=O)[C@H](CCCNC(=N)N)NC(=O)[C@@H]1CCCN1C(=O)[C@H](Cc1c[nH]cn1)NC(=O)[C@@H]1CCCN1C(=O)[C@@H]1CCCN1C(=O)[C@H](CCCNC(=N)N)NC(=O)[C@@H]1CCCN1C(=O)[C@H](CCCNC(=N)N)NC(=O)[C@@H]1CCCN1C(=O)[C@H](CCCN)NC(=O)[C@H](Cc1ccc(O)cc1)NC(=O)[C@@H](NC(=O)[C@@H]1CCCN1C(=O)[C@H](CCCNC(=N)N)NC(=O)[C@H](CCCN)NC(=O)[C@H](Cc1c[nH]c2ccccc12)NC(=O)[C@H](CCCN)NC(=O)[C@H](Cc1c[nH]c2ccccc12)NC(=O)[C@H](CCCN)NC(=O)[C@H](Cc1c[nH]c2ccccc12)NC(=O)[C@H](CCCN)N=C(N(C)C)N(C)C)C(C)C)C(=O)O [Api794, gu-O(WO)3RPVYOPRPRPPHPRL-OH] ({Orn(α-tetramethylguanidino)}-W[Orn]W[Orn]W[Orn]RPVY[Orn]PRPRPPHPRL-OH)
IC50 on cell viability [1]: 280 ± 30 µg/mL (≈ 94.4 µM)
IC50 on cell viability [2]: 230 ± 90 µg/mL (≈ 77.6 µM)
Cell: r, ruptured ([3]; 16 µg/mL): 0%
DNA/Ribosomes relocalized ([3]; 16 µg/mL): 0%
Fragments: +++, long and thick ([3]; 16 µg/mL): 0%
Fragments: ++, long and thin ([3]; 16 µg/mL): 23%
Fragments: +, small and thin ([3]; 16 µg/mL): 40%
Fragments: -, no ([3]; 16 µg/mL): 37%
Fragments: LV, large vesicles ([3]; 16 µg/mL): 0%
Membrane: i, intact ([3]; 16 µg/mL): 33%
Membrane: w, wrinkled ([3]; 16 µg/mL): 67%
Vesicle release strong ([3]; 16 µg/mL): 100%
Cell: r, ruptured ([3]; 64 µg/mL): 0%
DNA/Ribosomes relocalized ([3]; 64 µg/mL): 0%
Fragments: +++, long and thick ([3]; 64 µg/mL): 23%
Fragments: ++, long and thin ([3]; 64 µg/mL): 33%
Fragments: +, small and thin ([3]; 64 µg/mL): 27%
Fragments: -, no ([3]; 64 µg/mL): 17%
Fragments: LV, large vesicles ([3]; 64 µg/mL): 3%
Membrane: i, intact ([3]; 64 µg/mL): 100%
Membrane: w, wrinkled ([3]; 64 µg/mL): 0%
Vesicle release strong ([3]; 64 µg/mL): 97%
Cell: r, ruptured ([3]; 256 µg/mL): 0%
DNA/Ribosomes relocalized ([3]; 256 µg/mL): 0%
Fragments: +++, long and thick ([3]; 256 µg/mL): 3%
Fragments: ++, long and thin ([3]; 256 µg/mL): 37%
Fragments: +, small and thin ([3]; 256 µg/mL): 43%
Fragments: -, no ([3]; 256 µg/mL): 17%
Fragments: LV, large vesicles ([3]; 256 µg/mL): 93%
Membrane: i, intact ([3]; 256 µg/mL): 3%
Membrane: w, wrinkled ([3]; 256 µg/mL): 97%
Vesicle release strong ([3]; 256 µg/mL): 97%
Cell: r, ruptured ([3]; 512 µg/mL): 3%
DNA/Ribosomes relocalized ([3]; 512 µg/mL): 30%
Fragments: +++, long and thick ([3]; 512 µg/mL): 17%
Fragments: ++, long and thin ([3]; 512 µg/mL): 30%
Fragments: +, small and thin ([3]; 512 µg/mL): 37%
Fragments: -, no ([3]; 512 µg/mL): 17%
Fragments: LV, large vesicles ([3]; 512 µg/mL): 97%
Membrane: i, intact ([3]; 512 µg/mL): 93%
Membrane: w, wrinkled ([3]; 512 µg/mL): 7%
Vesicle release strong ([3]; 512 µg/mL): 93%
Drop of GeoMean fluorescence (uptake) in the presence of dynasore vs vehicle control [4]: 50%

CC[C@H](C)[C@H](NC(=O)[C@H](Cc1ccc(O)cc1)NC(=O)[C@@H](NC(=O)[C@@H]1CCCN1C(=O)[C@H](CCCNC(=N)N)NC(=O)[C@H](CC(N)=O)NC(=O)[C@H](CC(N)=O)NC(=O)[C@H](CCCN)N=C(N(C)C)N(C)C)C(C)C)C(=O)N1CCC[C@H]1C(=O)N[C@@H](CCCNC(=N)N)C(=O)N1CCC[C@H]1C(=O)N[C@@H](CCCNC(=N)N)C(=O)N1CCC[C@H]1C(=O)N1CCC[C@H]1C(=O)N[C@@H](Cc1c[nH]cn1)C(=O)N1CCC[C@H]1C(=O)N[C@@H](CCCNC(=N)N)C(=O)N[C@@H](CC(C)C)C(=O)O [Api137, gu-ONNRPVYIPRPRPPHPRL-OH, reference compound] ({Orn(α-tetramethylguanidino)}-NNRPVYIPRPRPPHPRL-OH)
viability at 24 h, 0.6 g/L [5]: 83 ± 3%
Cell: r, ruptured ([3]; 8 µg/mL): 0%
DNA/Ribosomes relocalized ([3]; 8 µg/mL): 17%
Fragments: +++, long and thick ([3]; 8 µg/mL): 0%
Fragments: ++, long and thin ([3]; 8 µg/mL): 27%
Fragments: +, small and thin ([3]; 8 µg/mL): 30%
Fragments: -, no ([3]; 8 µg/mL): 43%
Fragments: LV, large vesicles ([3]; 8 µg/mL): 0%
Membrane: i, intact ([3]; 8 µg/mL): 100%
Membrane: w, wrinkled ([3]; 8 µg/mL): 0%
Vesicle release strong ([3]; 8 µg/mL): 100%
Cell: r, ruptured ([3]; 32 µg/mL): 0%
DNA/Ribosomes relocalized ([3]; 32 µg/mL): 30%
Fragments: +++, long and thick ([3]; 32 µg/mL): 0%
Fragments: ++, long and thin ([3]; 32 µg/mL): 23%
Fragments: +, small and thin ([3]; 32 µg/mL): 40%
Fragments: -, no ([3]; 32 µg/mL): 37%
Fragments: LV, large vesicles ([3]; 32 µg/mL): 0%
Membrane: i, intact ([3]; 32 µg/mL): 97%
Membrane: w, wrinkled ([3]; 32 µg/mL): 3%
Vesicle release strong ([3]; 32 µg/mL): 100%
Cell: r, ruptured ([3]; 128 µg/mL): 0%
DNA/Ribosomes relocalized ([3]; 128 µg/mL): 0%
Fragments: +++, long and thick ([3]; 128 µg/mL): 0%
Fragments: ++, long and thin ([3]; 128 µg/mL): 42%
Fragments: +, small and thin ([3]; 128 µg/mL): 54%
Fragments: -, no ([3]; 128 µg/mL): 4%
Fragments: LV, large vesicles ([3]; 128 µg/mL): 0%
Membrane: i, intact ([3]; 128 µg/mL): 4%
Membrane: w, wrinkled ([3]; 128 µg/mL): 96%
Vesicle release weak ([3]; 128 µg/mL): 35%
Cell: r, ruptured ([3]; 512 µg/mL): 0%
DNA/Ribosomes relocalized ([3]; 512 µg/mL): 0%
Fragments: +++, long and thick ([3]; 512 µg/mL): 0%
Fragments: ++, long and thin ([3]; 512 µg/mL): 29%
Fragments: +, small and thin ([3]; 512 µg/mL): 61%
Fragments: -, no ([3]; 512 µg/mL): 11%
Fragments: LV, large vesicles ([3]; 512 µg/mL): 0%
Membrane: i, intact ([3]; 512 µg/mL): 32%
Membrane: w, wrinkled ([3]; 512 µg/mL): 68%
Vesicle release weak ([3]; 512 µg/mL): 50%
